The target in assay [1] is T1, full-length human CSNK1A1 (Homo sapiens, UniProt P48729).
T1 construct: N-terminal Glutathion-S-Transferase (GST) and full-length human CSNK1A1; purchased Life Technologies PV4174; host or cells: baculovirus infected insect cells
In words: CSNK1A1 Assay 2 (ADP-Glo, 1 μM ATP, substrate biotin-Ahx-KRRRAL-pS-VASLPGL). The assay is classed as biochemical. The conditions noted are these: Table 3, read-out: CSNK1A1 Assay 2 IC50 [mol/l] (median). How it is done: CSNK1A1-inhibitory activity of compounds of the present invention in presence of 1 μM adenosine-tri-phosphate (ATP) was quantified employing the CSNK1A1 assay as described in the following paragraphs. In essence, the enzyme activity is measured by quantification of the adenosine-di-phosphate (ADP), which is generated as a co-product of the enzyme reaction, via the “ADP-Glo™ Kinase Assay” kit from the company Promega. This detection system works as follows: In a first step the ATP not consumed in the kinase reaction is quantitatively converted to cAMP employing an adenylate cyclase (“ADP-Glo-reagent”), then the adenylate cyclase is stopped and the ADP generated in the kinase reaction converted to ATP which generates in a luciferase-based reaction a glow-luminescence signal (“Kinase Detection Reagent”).
(§1) Recombinant fusion protein of N-terminal Glutathion-S-Transferase (GST) and full-length human CSNK1A1, expressed by baculovirus infected insect cells and purified via Glutathion affinity chromatography, was purchased from Life Technologies (product no. PV4174) and used as enzyme. As substrate for the kinase reaction the biotinylated peptide biotin-Ahx-KRRRAL-pS-VASLPGL (C-terminus in amide form) was used which can be purchased e.g. from the company Biosyntan (Berlin-Buch, Germany).
For the assay 50 nl of a 100 fold concentrated solution of the test compound in DMSO was pipetted into a white 1536-well microtiter plate (Greiner Bio-One, Frickenhausen, Germany), 2 μL of a solution of CSNK1A1 in aqueous assay buffer [50 mM HEPES pH 7.5, 10% (v/v) glycerol, 10 mM MgCl2, 50 mM NaCl, 1 mM dithiothreitol, 0.01% (w/v) bovine serum albumin, 0.01% (v/v) Triton X-100] were added and the mixture was incubated for 15 min at 22° C. to allow pre-binding of the test compounds to the enzyme before the start of the kinase reaction. […] The concentration of CSNK1A1 was adjusted depending of the activity of the enzyme lot and was chosen appropriate to have the assay in the linear range, a typical concentrations are about 0.0375 ng/μL. The reaction was stopped by the addition of 2.5 μL of “ADP-Glo-reagent” (1:1.5 fold diluted with water) and the resulting mixture was incubated at 22° C. for 1 h to convert the ATP not consumed in the kinase reaction completely […]. Subsequently 2.5 μL of the “kinase detection reagent” (1.2 fold more concentrated than recommended by the producer) were added, the resulting mixture was incubated at 22° C. for 1 h and then the luminescence measured with a suitable measurement instrument (e.g. Viewlux™ from Perkin-Elmer). The amount of emitted light was taken as a measure for the amount of ADP generated and thereby for the activity of the CSNK1A1.
(In general: ADP-Glo turns the ADP formed in a reaction into a luminescent signal.)

Assay [2] deals with T1, full-length human CSNK1A1. Briefly: CSNK1A1 High ATP Assay (ADP-Glo, 1 mM ATP).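 Note: 30 min kinase reaction at 22 °C with 100 µM peptide substrate.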 It is filed as biochemical. The conditions noted are these: Table 3, read-out: CSNK1A1 high ATP assay IC50 [mol/l] (median). On the procedure: CSNK1A1-inhibitory activity of compounds of the present invention in presence of 1 mM adenosine-tri-phosphate (ATP) was quantified employing the CSNK1A1-high-ATP-assay as described in the following paragraphs. In essence, the enzyme activity is measured by quantification of the adenosine-di-phosphate (ADP), which is generated as a co-product of the enzyme reaction, via the “ADP-Glo™ Kinase Assay” kit from the company Promega. This detection system works as follows: In a first step the ATP not consumed in the kinase reaction is quantitatively converted to cAMP employing an adenylate cyclase (“ADP-Glo-reagent”), then the adenylate cyclase is stopped and the ADP generated in the kinase reaction converted to ATP which generates in a luciferase-based reaction a glow-luminescence signal (“Kinase Detection Reagent”).
as §1
For the assay 50 nl of a 100 fold concentrated solution of the test compound in DMSO was pipetted into a white low volume 384-well microtiter plate (Greiner Bio-One, Frickenhausen, Germany), 2 μL of a solution of CSNK1A1 in aqueous assay buffer [50 mM HEPES pH 7.5, 10% (v/v) glycerol, 10 mM MgCl2, 50 mM NaCl, 1 mM dithiothreitol, 0.01% (w/v) bovine serum albumin, 0.01% (v/v) Triton X-100] were added and the mixture was incubated for 15 min at 22° C. to allow pre-binding of the test compounds to the enzyme before the start of the kinase reaction. […] The concentration of CSNK1A1 was adjusted depending of the activity of the enzyme lot and was chosen appropriate to have the assay in the linear range, a typical concentration is about 0.4 ng/μL. The reaction was stopped by the addition of 2.5 μL of “ADP-Glo-reagent” (1:1.5 fold diluted with water) and the resulting mixture was incubated at 22° C. for 1 h to convert the ATP not consumed in the kinase reaction completely […]. Subsequently 2.5 μL of the “kinase detection reagent” (1.2 fold more concentrated than recommended by the producer) were added, the resulting mixture was incubated at 22° C. for 1 h and then the luminescence measured with a suitable measurement instrument (e.g. Viewlux™ from Perkin-Elmer). The amount of emitted light was taken as a measure for the amount of ADP generated and thereby for the activity of the CSNK1A1.

Values joined by “and” are separate entries in the source; they are usually repeats but may differ in a detail not shown here. Equal values may be shown once.

T1 sequence (P48729 whole entry): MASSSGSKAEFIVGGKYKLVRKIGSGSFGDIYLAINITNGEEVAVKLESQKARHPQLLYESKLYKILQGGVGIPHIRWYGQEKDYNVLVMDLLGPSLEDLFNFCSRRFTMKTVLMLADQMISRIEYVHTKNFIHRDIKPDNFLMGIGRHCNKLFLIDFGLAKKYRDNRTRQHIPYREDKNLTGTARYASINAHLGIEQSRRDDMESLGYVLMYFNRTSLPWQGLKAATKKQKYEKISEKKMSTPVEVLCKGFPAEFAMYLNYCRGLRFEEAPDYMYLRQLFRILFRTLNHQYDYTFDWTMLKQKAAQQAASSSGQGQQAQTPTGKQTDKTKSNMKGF

In the case of `O=C(Nc1cc(-c2[nH]c3cc(F)cnc3c2-c2ccccc2)ccn1)C(CC(F)F)c1ccc(F)cc1` (racemic) [Example 19, 4,4-difluoro-2-(4-fluorophenyl)-N-[4-(6-fluoro-3-phenyl-1H-pyrrolo[3,2-b]pyridin-2-yl)pyridin-2-yl]butanamide], the IC50 in assay [1] was determined as 0.00922 µM; in assay [2], 0.602 µM.
In the case of `O=C(Nc1cc(-c2[nH]c3cccnc3c2-c2ccccc2)ccn1)C(CC(F)F)c1ccc(F)cc1` (racemic) [Example 22, 4,4-difluoro-2-(4-fluorophenyl)-N-[4-(3-phenyl-1H-pyrrolo[3,2-b]pyridin-2-yl)pyridin-2-yl]butanamide], the IC50 in assay [1] stood at 0.00237 µM; in assay [2], 0.0904 µM.
For `O=C(Nc1cc(-c2[nH]c3cncnc3c2-c2ccccn2)ccn1)C(CC(F)F)c1ccc(F)cc1` (racemic) [Example 13, 4,4-difluoro-2-(4-fluorophenyl)-N-{4-[7-(pyridin-2-yl)-5H-pyrrolo[3,2-d]pyrimidin-6-yl]pyridin-2-yl}butanamide], the IC50 is 0.00466 µM in assay [1] and 0.24 µM in assay [2].
For the molecule `O=C(Nc1cc(-c2[nH]c3nccnc3c2-c2ccccn2)ccn1)C(CC(F)(F)F)c1ccc(F)cc1` (single isomer, unassigned) [Example 121, (2R or S)-4,4,4-trifluoro-2-(4-fluorophenyl)-N-{4-[7-(pyridin-2-yl)-5H-pyrrolo[2,3-b]pyrazin-6-yl]pyridin-2-yl}butanamide], the IC50 worked out at 0.0294 µM in assay [1] and 0.946 µM in assay [2].
`O=C(Nc1cc(-c2[nH]c3c(OCC4CC4)ncnc3c2-c2ccccn2)ccn1)C(CC(F)F)c1ccc(F)cc1` (single isomer, unassigned) [Example 129, (2R or S)—N-{4-[4-(cyclopropylmethoxy)-7-(pyridin-2-yl)-5H-pyrrolo[3,2-d]pyrimidin-6-yl]pyridin-2-yl}-4,4-difluoro-2-(4-fluorophenyl)butanamide]: the figures for the IC50 in assay [1] and in assay [2] were 0.00452 µM and 0.0103 µM, respectively.
With `O=C(Nc1cc(-c2[nH]c3cccnc3c2-c2cccc(F)n2)ccn1)C(CC(F)F)c1ccc(F)cc1` (racemic) [Example 25, 4,4-difluoro-2-(4-fluorophenyl)-N-{4-[3-(6-fluoropyridin-2-yl)-1H-pyrrolo[3,2-b]pyridin-2-yl]pyridin-2-yl}butanamide], the results for the IC50 in assay [1] and in assay [2] were 0.00277 µM and 0.0186 µM, respectively.
On the same counts, the results for `O=C(Nc1cc(-c2[nH]c3c(C4CCCO4)cc(F)nc3c2-c2ccccn2)ccn1)C(CC(F)F)c1ccc(F)cc1` (single isomer, unassigned) [Example 115, (2R or S)-4,4-difluoro-N-(4-{5-fluoro-7-[(2R or S)-oxolan-2-yl]-3-(pyridin-2-yl)-1H-pyrrolo[3,2-b]pyridin-2-yl}pyridin-2-yl)-2-(4-fluorophenyl)butanamide] are 0.00584 µM and 0.0231 µM.
Taken in the same sequence, the figures for `O=C(Nc1cc(-c2[nH]c3nccnc3c2-c2ccccn2)ccn1)C(CC(F)(F)F)c1ccc(F)cc1` (racemic) [Example 119, (2RS)-4,4,4-trifluoro-2-(4-fluorophenyl)-N-{4-[7-(pyridin-2-yl)-5H-pyrrolo[2,3-b]pyrazin-6-yl]pyridin-2-yl}butanamide] were 0.00271 µM and 0.0486 µM.
On the same counts, the results for `O=C(Nc1cc(-c2[nH]c3cccnc3c2-c2ccccc2)ccn1)C(CC(F)F)c1ccc(F)cc1` (single isomer, unassigned; (+)) [Example 24, (+)-4,4-difluoro-2-(4-fluorophenyl)-N-[4-(3-phenyl-1H-pyrrolo[3,2-b]pyridin-2-yl)pyridin-2-yl]butanamide] are 0.00162 µM and 0.0666 µM.
`O=C(Nc1cc(-c2[nH]c3ccc(F)nc3c2-c2cc(F)ccn2)ccn1)C(CC(F)F)c1ccc(F)cc1` (racemic) [Example 95, (2RS)-4,4-difluoro-N-{4-[5-fluoro-3-(4-fluoropyridin-2-yl)-1H-pyrrolo[3,2-b]pyridin-2-yl]pyridin-2-yl}-2-(4-fluorophenyl)butanamide]: the IC50 in assay [1] and in assay [2] was 0.00562 µM throughout.
Take `O=C(Nc1cc(-c2[nH]c3c(OCC(F)F)cc(F)nc3c2-c2ccccn2)ccn1)C(CC(F)F)c1ccc(F)cc1` (racemic) [Example 28, (2RS)—N-{4-[7-(2,2-difluoroethoxy)-5-fluoro-3-(pyridin-2-yl)-1H-pyrrolo[3,2-b]pyridin-2-yl]pyridin-2-yl}-4,4-difluoro-2-(4-fluorophenyl)butanamide]: the IC50 in assay [1] and in assay [2] was 0.00395 µM in each case.
Consider `O=C(Nc1cc(-c2[nH]c3c(OCC4CC4)ncnc3c2-c2ccccn2)ccn1)C(CC(F)F)c1ccc(F)cc1` (single isomer, unassigned) [Example 130, (2R or S)—N-{4-[4-(cyclopropylmethoxy)-7-(pyridin-2-yl)-5H-pyrrolo[3,2-d]pyrimidin-6-yl]pyridin-2-yl}-4,4-difluoro-2-(4-fluorophenyl)butanamide], for which the IC50 in assay [1] is 0.0437 µM; in assay [2] it was 4.96 µM and > 5.71 µM.
Turning to `COc1cc(F)nc2c(-c3ccccn3)c(-c3ccnc(NC(=O)C(CC(F)F)c4ccc(F)cc4)c3)[nH]c12` (single isomer, unassigned; (-)) [Example 41, (−)-4,4-difluoro-N-{4-[5-fluoro-7-methoxy-3-(pyridin-2-yl)-1H-pyrrolo[3,2-b]pyridin-2-yl]pyridin-2-yl}-2-(4-fluorophenyl)butanamide], the IC50 in assay [1] and in assay [2] was 0.00337 µM throughout.
As to `Cc1cnc2c(-c3ccccn3)c(-c3ccnc(NC(=O)C(CC(F)F)c4ccc(F)cc4)c3)[nH]c2c1` (single isomer, unassigned) [Example 9, 4,4-difluoro-2-(4-fluorophenyl)-N-{4-[6-methyl-3-(pyridin-2-yl)-1H-pyrrolo[3,2-b]pyridin-2-yl]pyridin-2-yl}butanamide], the figures for the IC50 in assay [1] and in assay [2] were 0.0158 µM and 0.945 µM, respectively.
Take `O=C(Nc1cc(-c2[nH]c3cccnc3c2-c2ccccn2)ccn1)C(CC(F)F)c1ccc(F)cc1` (single isomer, unassigned; (+)) [Example 11, (+)-4,4-difluoro-2-(4-fluorophenyl)-N-{4-[3-(pyridin-2-yl)-1H-pyrrolo[3,2-b]pyridin-2-yl]pyridin-2-yl}butanamide]: the IC50 in assay [1] came out at 0.0012 µM; in assay [2] it was 0.00535 µM.
Turning to `O=C(Nc1cc(-c2[nH]c3cccnc3c2-c2ccccc2)ccn1)C(CC(F)F)c1ccc(F)cc1` (single isomer, unassigned; (-)) [Example 23, (−)-4,4-difluoro-2-(4-fluorophenyl)-N-[4-(3-phenyl-1H-pyrrolo[3,2-b]pyridin-2-yl)pyridin-2-yl]butanamide], the figures for the IC50 in assay [1] and in assay [2] were 0.0336 µM and 3.74 µM, respectively.

For the origin of these results see patent publication US12692261B2, “Substituted heterocyclic compounds and therapeutic uses thereof” (Bayer Aktiengesellschaft, priority 2020, dated 2026).
